This is an account of results in patent US10519134B2, “Pyrazole compounds and methods of making and using same” (Lundbeck La Jolla Research Center, Inc., priority 2015, dated 2019).

Each structure is given as a SMILES string.

The target of one assay is T1, FAAH (Mus musculus, UniProt O08914).
T1 construct: Proteomes (mouse brain membrane fraction or cell lysates); from tissue; host or cells: mouse brain membrane fraction (or cell lysates)
T1 sequence (O08914 1-579): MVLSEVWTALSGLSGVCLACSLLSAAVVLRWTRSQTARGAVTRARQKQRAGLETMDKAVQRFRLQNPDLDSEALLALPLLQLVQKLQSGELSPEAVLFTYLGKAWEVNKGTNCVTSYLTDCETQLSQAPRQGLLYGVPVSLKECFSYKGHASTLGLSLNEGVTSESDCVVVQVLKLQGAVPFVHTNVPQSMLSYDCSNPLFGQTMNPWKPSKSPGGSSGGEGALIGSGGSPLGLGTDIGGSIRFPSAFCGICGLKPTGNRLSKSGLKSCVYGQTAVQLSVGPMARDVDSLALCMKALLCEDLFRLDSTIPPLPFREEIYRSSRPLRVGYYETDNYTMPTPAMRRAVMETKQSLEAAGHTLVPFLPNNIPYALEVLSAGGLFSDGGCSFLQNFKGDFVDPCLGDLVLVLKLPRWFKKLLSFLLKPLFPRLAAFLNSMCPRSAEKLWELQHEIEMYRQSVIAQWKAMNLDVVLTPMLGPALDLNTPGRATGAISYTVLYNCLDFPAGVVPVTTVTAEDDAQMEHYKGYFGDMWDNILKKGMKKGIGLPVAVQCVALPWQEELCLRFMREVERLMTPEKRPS
Kind of assay: In vitro competitive activity-based protein profiling (mouse), FAAH gel band. Type of assay: biochemical. The settings on record: for IC50: mouse; for inhibition at 1 µM: read-out: FAAH % inh. 1 μM. In outline:
(§1)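 Competitive ABPP: inhibitors at varying concentrations were given 30 min at 37 °C with mouse brain membranes or cell lysates (1.0 mg/mL total protein) before 30 min labelling by FP-Rh or HT-01 (stock 50 μM in DMSO). Residual hydrolase activity read as in-gel fluorescence of MAGL and FAAH bands.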

The target of assay [1] is T2, MAGL (Mus musculus, UniProt O35678).
T2 construct: Proteomes (mouse brain membrane fraction or cell lysates); from tissue; host or cells: mouse brain membrane fraction (or cell lysates)
T2 sequence (O35678 1-303): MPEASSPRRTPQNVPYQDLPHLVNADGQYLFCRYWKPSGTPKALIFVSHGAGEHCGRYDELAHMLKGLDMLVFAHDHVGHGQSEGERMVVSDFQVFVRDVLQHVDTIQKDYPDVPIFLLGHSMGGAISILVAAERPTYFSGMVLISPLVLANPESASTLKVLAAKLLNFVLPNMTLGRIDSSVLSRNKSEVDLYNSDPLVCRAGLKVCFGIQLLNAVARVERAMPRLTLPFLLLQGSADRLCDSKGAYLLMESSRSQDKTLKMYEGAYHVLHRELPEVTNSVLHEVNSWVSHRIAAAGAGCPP
Kind of assay: Mouse brain proteomes from inhibitor treated mice (oral gavage, sacrificed 4 h after administration). Format: in vivo. The settings on record: read-out: MAGL % inh. 5 mg/kg. The gist of the method:
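Brains were collected 4 h after oral gavage dosing of wild-type C57Bl/6J mice, vehicle polyethylene glycol. Proteomes from these brains were then analyzed for MAGL and other serine hydrolase activity.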

Assay [2] addresses T2, MAGL. Kind of assay: In vitro competitive activity-based protein profiling (mouse), MAGL gel band. Type of assay: biochemical. The settings on record: for IC50: mouse; for inhibition at 1 µM: read-out: MAGL % inh. 1 μM. In outline: as §1

The term IC50 denotes the point on the concentration scale where inhibition reaches its midpoint. On to `CC(=O)Nc1ccn(C(=O)N2CCN(Cc3cc(Oc4cncnc4)cc(C(F)(F)F)c3)CC2)n1` [Example 74, N-(1-(4-(3-(pyrimidin-5-yloxy)-5-(trifluoromethyl)benzyl)piperazine-1-carbonyl)-1H-pyrazol-3-yl)acetamide], for which the values for the concentration for half-maximal inhibition (IC50) on FAAH and at MAGL [2] were 1 to 10 µM and at most 0.1 µM, respectively. In addition, the figures for the inhibition at 1 µM on FAAH and at MAGL [2] were 0 to 25% and at least 75%, respectively. Further, at MAGL [1], the inhibition at 5 mg/kg was in the range of 25 to 50%.

As to `CC(=O)Nc1ccn(C(=O)N2CCN(Cc3cc(OC4CCS(=O)(=O)CC4)cc(C(F)(F)F)c3)CC2)n1` [Example 78, N-(1-(4-(3-((1,1-dioxidotetrahydro-2H-thiopyran-4-yl)oxy)-5-(trifluoromethyl)benzyl)piperazine-1-carbonyl)-1H-pyrazol-3-yl)acetamide], at FAAH, the IC50 lay in the range of 1 to 10 µM and the inhibition at 1 µM lay within 0 to 25%. For the same molecule, at MAGL [1], the inhibition at 5 mg/kg was in the range of 0 to 25%. Also, at MAGL [2], the IC50 is at most 0.1 µM and the inhibition at 1 µM was at least 75%.

For `CC(=O)Nc1ccn(C(=O)N2CCN(Cc3ccc(C(F)(F)F)cc3OCC(=O)N3CCCC3)CC2)n1` [Example 79, N-(1-(4-(2-(2-oxo-2-(pyrrolidin-1-yl)ethoxy)-4-(trifluoromethyl)benzyl)piperazine-1-carbonyl)-1H-pyrazol-3-yl)acetamide], the IC50 on FAAH is 1 to 10 µM; on MAGL [2] it was at most 0.1 µM. In addition, the inhibition at 1 µM at FAAH is 0 to 25%; on MAGL [2], at least 75%. Besides, the inhibition at 5 mg/kg on MAGL [1] lay within 0 to 25%.

For `CC(=O)Nc1ccn(C(=O)N2CCN(Cc3cc(OCC(=O)N4CCCC4)cc(C(F)(F)F)c3)CC2)n1` [Example 80, N-(1-(4-(3-(2-oxo-2-(pyrrolidin-1-yl)ethoxy)-5-(trifluoromethyl)benzyl)piperazine-1-carbonyl)-1H-pyrazol-3-yl)acetamide], on FAAH, the IC50 lay in the range of 1 to 10 µM and the inhibition at 1 µM lay within 0 to 25%. Further, the inhibition at 5 mg/kg at MAGL [1] was in the range of 0 to 25%. Besides, at MAGL [2], the IC50 was at most 0.1 µM and the inhibition at 1 µM was at least 75%.

On to `CC(=O)Nc1ccn(C(=O)N2CCC3(CCCN3Cc3ccc(C(F)(F)F)cc3OC3CCN(C4CC4)CC3)CC2)n1` [Example 81, N-(1-(1-(2-(1-cyclopropylpiperidin-4-yloxy)-4-(trifluoromethyl)benzyl)-1,8-diazaspiro[4.5]decane-8-carbonyl)-1H-pyrazol-3-yl)acetamide], for which, at FAAH, the IC50 was 1 to 10 µM and the inhibition at 1 µM was in the range of 0 to 25%. In addition, the inhibition at 5 mg/kg at MAGL [1] lay in the range of 0 to 25%. Further, on MAGL [2], the IC50 was at most 0.1 µM and the inhibition at 1 µM was at least 75%.

`CC(=O)Nc1ccn(C(=O)N2CCC3(CCCN3Cc3cc(OC4CCN(C5CC5)CC4)cc(C(F)(F)F)c3)CC2)n1` [Example 82, N-(1-(1-(3-(1-cyclopropylpiperidin-4-yloxy)-5-(trifluoromethyl)benzyl)-1,8-diazaspiro[4.5]decane-8-carbonyl)-1H-pyrazol-3-yl)acetamide]: on FAAH, the half-inhibitory concentration (IC50) lay within 1 to 10 µM and the inhibition at 1 µM lay within 0 to 25%. Besides, the inhibition at 5 mg/kg on MAGL [1] fell in the range of 0 to 25%. On MAGL [2], the IC50 is at most 0.1 µM and the inhibition at 1 µM is at least 75%.

As for `CC(=O)Nc1ccn(C(=O)N2CCC3(CCCN3Cc3ccc(C(F)(F)F)cc3Oc3cncnc3)CC2)n1` [Example 83, N-(1-(1-(2-(pyrimidin-5-yloxy)-4-(trifluoromethyl)benzyl)-1,8-diazaspiro[4.5]decane-8-carbonyl)-1H-pyrazol-3-yl)acetamide], at FAAH, the IC50 was in the range of 1 to 10 µM and the inhibition at 1 µM is 0 to 25%. Moreover, the inhibition at 5 mg/kg at MAGL [1] was 0 to 25%. At MAGL [2], the IC50 was at most 0.1 µM and the inhibition at 1 µM is at least 75%.
